Where two headings read alike, the source gives them in different places.
Legend:
[1] = target: T1, androgen receptor (AR) splicing variant AR-v7 (Homo sapiens, UniProt P10275); test: Degradation activity on androgen receptor splicing variant AR-v7 in 22RV1 cells (ELISA); format: cell-based; details: AR-v7 degradation in 22RV1 cells, 48 h, class symbols
T1 construct: The degradation activity of compounds on AR-v7 in 22RV1 cells; host or cells: 22RV1 cells
T1 sequence (P10275 1-644 isoform P10275-3): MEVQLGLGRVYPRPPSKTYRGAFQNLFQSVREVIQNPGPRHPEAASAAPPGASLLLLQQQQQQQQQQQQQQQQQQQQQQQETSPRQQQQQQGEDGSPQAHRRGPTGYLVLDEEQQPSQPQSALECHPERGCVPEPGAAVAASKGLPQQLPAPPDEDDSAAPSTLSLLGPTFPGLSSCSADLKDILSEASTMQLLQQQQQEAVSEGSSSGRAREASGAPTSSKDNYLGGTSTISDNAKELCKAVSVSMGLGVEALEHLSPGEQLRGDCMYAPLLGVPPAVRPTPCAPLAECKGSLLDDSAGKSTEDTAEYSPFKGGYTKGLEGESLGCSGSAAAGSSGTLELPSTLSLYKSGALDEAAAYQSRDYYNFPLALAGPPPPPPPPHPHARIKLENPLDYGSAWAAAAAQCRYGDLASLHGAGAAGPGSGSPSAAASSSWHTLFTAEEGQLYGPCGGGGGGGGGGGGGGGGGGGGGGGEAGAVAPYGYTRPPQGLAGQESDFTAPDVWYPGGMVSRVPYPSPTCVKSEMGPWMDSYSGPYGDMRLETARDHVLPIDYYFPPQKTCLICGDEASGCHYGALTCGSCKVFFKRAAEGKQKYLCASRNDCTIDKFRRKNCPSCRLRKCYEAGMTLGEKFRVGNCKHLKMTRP

[2] = Homo sapiens, 22Rv1, 144 h, read-out: 22RV1 IC50 (nM), 22RV1 cells, 6 days culture, CCK-8, OD 450 nm
[3] = read-out: 22RV1 IC50, 22RV1 cells, 6 days culture, CCK-8, OD 450 nm

Row | SMILES | DC50 [1] [nM] | IC50 (22RV1 cells; [2]) [nM] | IC50 (22RV1 cells; [3]) [nM] | IC50 (22RV1 cells; Homo sapiens, 22Rv1, 144 h, read-out: 22RV1 IC50 (nM)) [nM]
1 | CC(C)(c1ccc(OCCCNc2ccc3c(c2)C(=O)N(C2CCC(=O)NC2=O)C3=O)cc1)c1ccc(OCc2ccnc(-n3ccnc3)n2)cc1 (stereo not shown) [Example 391, 5-((3-(4-(2-(4-((2-(1H-imidazol-1-yl)pyrimidin-4-yl)methoxy)phenyl)propan-2-yl)phenoxy)propyl)amino)-2-(2,6-dioxopiperidin-3-yl)isoindol-1,3-dione] | 11 to 100 | 56 | – | –
2 | CNc1nccc(COc2ccc(C(C)(C)c3ccc(OC4CC(Nc5ccc6c(c5)C(=O)N(C5CCC(=O)NC5=O)C6=O)C4)cc3)cc2)n1 (stereo not shown) [Example 392] | 11 to 100 | 21 | – | –
3 | CN1CCN(c2nccc(COc3ccc(C(C)(C)c4ccc(OC5CC(Nc6ccc7c(c6)C(=O)N(C6CCC(=O)NC6=O)C7=O)C5)cc4)cc3)n2)CC1 (stereo not shown) [Example 393] | 11 to 100 | 10 | – | –
4 | CNc1nccc(COc2ccc(C(C)(C)c3ccc(O[C@H]4C[C@H](Nc5ccc6c(c5)C(=O)N(C5CCC(=O)NC5=O)C6=O)C4)cc3)cc2)n1 (stereo partly shown) [Example 395] | < 10 | 10 | – | –
5 | CC(C)(c1ccc(OCc2ccnc(N3CCOCC3)n2)cc1)c1ccc(OC2CC(Nc3ccc4c(c3)C(=O)N(C3CCC(=O)NC3=O)C4=O)C2)cc1 (stereo not shown) [Example 396, 2-(2,6-dioxopyridin-3-yl)-5-(1s,3s)-3-(4-(2-(4-(2-morpholinylpyrimidin-4-yl)methoxy)phenyl)propan-2-yl)phenoxy)cyclobutyl)amino)isoindol-1,3-dione] | < 10 | – | 23 | –
6 | CC(C)(c1ccc(OCc2ccnc(N3CCC[C@@H](O)C3)n2)cc1)c1ccc(O[C@H]2C[C@@H](Nc3ccc4c(c3)C(=O)N(C3CCC(=O)NC3=O)C4=O)C2)cc1 (stereo partly shown) [Example 397] | < 10 | 13 | – | –
7 | CC(C)(c1ccc(OCc2ccnc(N3CC[C@H](O)C3)n2)cc1)c1ccc(OC2CC(Nc3ccc4c(c3)C(=O)N(C3CCC(=O)NC3=O)C4=O)C2)cc1 (stereo partly shown) [Example 398] | < 10 | – | 9 | –
8 | CC(C)(c1ccc(OCc2ccnc(N3CCC[C@H](O)C3)n2)cc1)c1ccc(O[C@H]2C[C@@H](Nc3ccc4c(c3)C(=O)N(C3CCC(=O)NC3=O)C4=O)C2)cc1 (stereo partly shown) [Example 399] | < 10 | 16 | – | –
9 | CN(C)C1CN(c2nccc(COc3ccc(C(C)(C)c4ccc(O[C@H]5C[C@@H](Nc6ccc7c(c6)C(=O)N(C6CCC(=O)NC6=O)C7=O)C5)cc4)cc3)n2)C1 (stereo partly shown) [Example 400] | < 10 | 10 | – | –
10 | CC(C)(c1ccc(OCc2ccnc(-n3ccnc3)n2)cc1)c1ccc(OC2CC(Nc3ccc4c(c3)C(=O)N(C3CCC(=O)NC3=O)C4=O)C2)cc1 (stereo not shown) [Example 405, 5-((1s,3s)-3-(4-(2-(2-(1H-imidazol-1-yl)pyrimidin-4-yl)methoxy)phenyl)propan-2-yl)phenoxy)cyclobutyl)amino)-2-(2,6-dioxopiperidin-3-yl)isoindol-1,3-dione] | < 10 | – | 19 | –
11 | CC(C)(c1ccc(OCc2ccnc(N3CC(N4CCC4)C3)n2)cc1)c1ccc(O[C@H]2C[C@@H](Nc3ccc4c(c3)C(=O)N(C3CCC(=O)NC3=O)C4=O)C2)cc1 (stereo partly shown) [Example 410] | < 10 | 6 | – | –
12 | CC(C)(c1ccc(OCc2cccc(N3CC4(COC4)C3)n2)cc1)c1ccc(O[C@H]2C[C@H](Nc3ccc4c(c3)C(=O)N(C3CCC(=O)NC3=O)C4=O)C2)cc1 (stereo partly shown) [Example 413] | < 10 | 11 | – | –
13 | CC(C)(c1ccc(OCc2ccnc(N3CC(N4CCC4)C3)n2)cc1)c1ccc(O[C@H]2C[C@H](Nc3ccc4c(c3)C(=O)N(C3CCC(=O)NC3=O)C4=O)C2)cc1 (stereo partly shown) [Example 414] | < 10 | 6 | – | –
14 | Cn1cc(-c2cccc(COc3ccc(C(C)(C)c4ccc(O[C@H]5C[C@H](Nc6ccc7c(c6)C(=O)N(C6CCC(=O)NC6=O)C7=O)C5)cc4)cc3)n2)cn1 (stereo partly shown) [Example 416] | < 10 | 22 | – | –
15 | CC(C)(c1ccc(OCc2cccc(-n3nccn3)n2)cc1)c1ccc(O[C@H]2C[C@H](Nc3ccc4c(c3)C(=O)N(C3CCC(=O)NC3=O)C4=O)C2)cc1 (stereo partly shown) [Example 419] | < 10 | 8 | – | –
16 | CC(C)(c1ccc(OCc2ccnc(N3CC(N4CC(F)C4)C3)n2)cc1)c1ccc(O[C@H]2C[C@H](Nc3ccc4c(c3)C(=O)N(C3CCC(=O)NC3=O)C4=O)C2)cc1 (stereo partly shown) [Example 420] | < 10 | 5 | – | –
17 | Cc1nc(-c2cccc(Oc3ccc(C(C)(C)c4ccc(O[C@H]5C[C@H](Nc6ccc7c(c6)C(=O)N(C6CCC(=O)NC6=O)C7=O)C5)cc4)cc3)n2)no1 (stereo partly shown) [Example 421] | < 10 | – | – | 3
18 | CN1CCN(c2ccc(Oc3ccc(C(C)(C)c4ccc(O[C@H]5C[C@H](Nc6ccc7c(c6)C(=O)N(C6CCC(=O)NC6=O)C7=O)C5)cc4)cc3)nn2)CC1 (stereo partly shown) [Example 425] | < 10 | 16 | – | –
19 | CCC(=O)c1ncc(Oc2ccc(C(C)(C)c3ccc(O[C@H]4C[C@H](Nc5ccc6c(c5)C(=O)N(C5CCC(=O)NC5=O)C6=O)C4)cc3)cc2)cn1 (stereo partly shown) [Example 427] | < 10 | 6 | – | –
20 | CCC(O)c1ncc(Oc2ccc(C(C)(C)c3ccc(O[C@H]4C[C@H](Nc5ccc6c(c5)C(=O)N(C5CCC(=O)NC5=O)C6=O)C4)cc3)cc2)cn1 (stereo partly shown) [Example 428] | < 10 | 6 | – | –
21 | Cc1nnc(Oc2ccc(C(C)(C)c3ccc(O[C@H]4C[C@H](Nc5ccc6c(c5)C(=O)N(C5CCC(=O)NC5=O)C6=O)C4)cc3)cc2)o1 (stereo partly shown) [Example 429, 2-(2,6-dioxopiperidin-3-yl)-5-((1r,3r)-3-(4-(2-(4-((5-methyl-1,3,4-oxadiazol-2-yl)oxy)phenyl)propan-2-yl)phenoxy)cyclobutyl)aminoisoindol-1,3-dione] | < 10 | 9 | – | –
22 | CCC(CC)(c1ccc(Oc2ccc(C(C)O)nn2)cc1)c1ccc(O[C@H]2C[C@@H](Nc3ccc4c(c3)C(=O)N(C3CCC(=O)NC3=O)C4=O)C2)cc1 (stereo partly shown) [Example 430] | < 10 | 9 | – | –
23 | CCC(CC)(c1ccc(Oc2ccc(C(C)=O)nn2)cc1)c1ccc(OC2CC(Nc3ccc4c(c3)C(=O)N(C3CCC(=O)NC3=O)C4=O)C2)cc1 (stereo not shown) [Example 431, 5-((1s,3s)-3-(4-(3-(4-((6-acetylpyridazine-3-yl)oxy)phenyl)pentan-3-yl)phenoxy)cyclobutyl)amino)-2-(2,6-dioxopyridin-3-yl)isoindol-1,3-dione] | < 10 | – | 4 | –
24 | CNC(=O)c1ncc(Oc2ccc(C(C)(C)c3ccc(O[C@H]4C[C@H](Nc5ccc6c(c5)C(=O)N(C5CCC(=O)NC5=O)C6=O)C4)cc3)cc2)cn1 (stereo partly shown) [Example 432] | < 10 | 7 | – | –
25 | CC(C)(c1ccc(Oc2cnc(-n3nccn3)nc2)cc1)c1ccc(O[C@H]2C[C@H](Nc3ccc4c(c3)C(=O)N(C3CCC(=O)NC3=O)C4=O)C2)cc1 (stereo partly shown) [Example 436, 5-(((1r,3r)-3-(4-(2-(4-((2-(2H-1,2,3-triazol-2-yl)pyrimidin-5-yl)oxy)phenyl)propan-2-yl)phenoxy)cyclobutyl)amino)-2-(2,6-dioxopiperidin-3-yl)isoindolin-1,3-dione] | < 10 | 6 | – | –
26 | CC(C)(c1ccc(OCCCNc2ccc3c(c2)C(=O)N(C2CCC(=O)NC2=O)C3=O)cc1)c1ccc(OCc2ccnc(NC3CC3)n2)cc1 (stereo not shown) [Example 444, 5-((3-(4-(2-(4-((2-(cyclopropylamino)pyrimidin-4-yl)methoxy)phenyl)propan-2-yl)phenoxy)propyl)amino)-2-(2,6-dioxopiperidin-3-yl)isoindolin-1,3-dione] | 11 to 100 | 62 | – | –
27 | CC(C)(c1ccc(OCc2ccnc(-n3ccnn3)n2)cc1)c1ccc(O[C@H]2C[C@@H](Nc3ccc4c(c3)C(=O)N(C3CCC(=O)NC3=O)C4=O)C2)cc1 (stereo partly shown) [Example 445, 5-(((1s,3s)-3-(4-(2-(4-((2-(1H-1,2,3-triazol-1-yl)pyrimidin-4-yl)methoxy)phenyl)propan-2-yl)phenoxy)cyclobutyl)amino)-2-(2,6-dioxopiperidin-3-yl)isoindolin-1,3-dione] | < 10 | 5 | – | –
28 | COc1nccc(COc2ccc(C(C)(C)c3ccc(OC4CC(Nc5ccc6c(c5)C(=O)N(C5CCC(=O)NC5=O)C6=O)C4)cc3)cc2)n1 (stereo not shown) [Example 447, 2-(2,6-dioxopiperidin-3-yl)-5-((3-(4-(2-(4-((2-methoxypyrimidin-4-yl)methoxy)phenyl)propan-2-yl)phenoxy)cyclobutyl)amino) isoindolin-1,3-dione] | < 10 | 8 | – | –
29 | CC1CN(c2nccc(COc3ccc(C(C)(C)c4ccc(OC5CC(Nc6ccc7c(c6)C(=O)N(C6CCC(=O)NC6=O)C7=O)C5)cc4)cc3)n2)CCN1C (stereo not shown) [Example 448] | 11 to 100 | 11 | – | –

From patent publication US20250051347A1, “BIFUNCTIONAL CHIMERIC HETEROCYCLIC COMPOUND AND USE THEREOF AS ANDROGEN RECEPTOR DEGRADER” (Hinova Pharmaceuticals, Inc., priority 2021, published 2025)
